These results are taken from PMC7961763, “Semi-Synthesis of Harringtonolide Derivatives and Their Antiproliferative Activity” (Molecules, 2021).

A word on the IC50: it is the midpoint of a concentration-inhibition curve.

Data set [1] relates to HCT-116 (human colon cancer cell line). The data set can be described thus: MTT assay, cytotoxicity against HCT-116. It is filed as cell-based. The conditions noted are these: read-out: IC50 HCT-116. As for the experimental part:
(§1) All the synthesized derivatives of HO were tested for their antiproliferative activity against four human cancer cell lines, including the HCT-116, A375, A-549, and Huh-7 cell lines, using the MTT assay. Cisplatin was used as a positive control, while lead compound HO (1) was also included in the study for comparison.
(§2) HCT-116 (Human colon cancer cell line), A375 (human melanoma cancer cell line), A-549 (human lung adenocarcinoma cell line), Huh-7 (human hepatoma cancer cell line), and L-02 (normal hepatic cell line) were purchased from the Cell Bank of Shanghai Institute of Biochemistry and Cell Biology, Chinese Academy of Sciences (Shanghai, China). The cells were cultured in Dulbecco’s modified Eagle medium (DMEM; NY, USA), which were all supplemented with 10% fetal bovine serum (FBS; NY, USA) at 37 °C with 5% CO2.
(§3) The cytotoxic activity was evaluated using the MTT assay. Briefly, cells were seeded in 96-well plates at a density of 5 × 10^3 cells/well in 100 μL of DMEM medium at 37 °C for 24 h. Stock solutions of test compounds were prepared in DMSO at concentration of 50 mM, and twofold serial dilution with a culture medium was performed to obtain appropriate concentrations right before the assay. After that, the cells were incubated with synthetic derivatives or cisplatin as a positive control at the various concentrations (0.78125-50 μM) for 48 h. Then, 20 μL of 3-(4,5-Dimethylthiazol-2-yl)-2,5-diphenyltetrazolium bromide (MTT, Aladdin, Shanghai, China) solution (5 mg/mL in PBS) was added, and then the cells were incubated at 37 °C for an additional 4 h. The supernatant was removed, and 150 μL of dimethyl sulfoxide was added to dissolve the MTT formazan. The optical density (OD) was measured on a microplate reader (SpectraMax Plus 384, Molecular Devices, Sunnyvale, CA, USA) at a wavelength of 570 nm. The cytotoxic activity was expressed as the IC50 values. The above tests were repeated three times in parallel. Vehicle DMSO (0.1%) was used as a negative control.
(In general: Formazan colour is commonly taken as a measure of viable cells.)

Data set [2] relates to A-549 (human lung adenocarcinoma cell line). The data set can be described thus: MTT assay, cytotoxicity against A549. It is filed as cell-based. The conditions noted are these: read-out: IC50 A549. As for the experimental part:
as §1, §2, §3

The test system of data set [3] is Huh-7 (human hepatoma cancer cell line). Briefly: MTT assay, cytotoxicity against Huh-7. It is filed as cell-based. As to conditions: read-out: IC50 Huh-7. As for the experimental part: as §1, §2, §3
The test system of data set [4] is human normal hepatic L-02 cells. Briefly: MTT assay, cytotoxicity on normal L-02 cells. It is filed as cell-based. As to conditions: for IC50: Homo sapiens, read-out: IC50 L-02; for SI (selectivity index): IC50 (L-02)/IC50 (Huh-7). As for the experimental part:
The selectivity index is crucial for drug development, because it could mediate side effects, including tissues toxicity. Therefore, according to cytotoxic activity results, compounds 6 and 10 with potent cytotoxicity in Huh-7 cells were selected to investigate the selectivity between normal and cancer cells. These two compounds were tested on human normal hepatic L-02 cells with HO as control.
as §2, §3

The test system of data set [5] is A375 (human melanoma cancer cell line). The data set can be described thus: MTT assay, cytotoxicity against A375. The conditions noted are these: read-out: IC50 A375. Format: cell-based. As for the experimental part:
as §1, §2, §3

Details of data set [6]: method as in PMID 18523925, PMID 29182349, PMID 31184894. As to conditions: compared with HO; cited from earlier work.
Data set [7] relates to HCT-116, A375, A549, and Huh-7 cells. Briefly: MTT assay, statements for the whole panel of tested cancer cells. Format: cell-based, human. The conditions noted are these: HCT-116, A375, A549, Huh-7; tested up to 50 μM. As for the experimental part:
as §1, §2, §3

Setting [8] is: Homo sapiens, HCT-116, 48 h, MTT, 48 h, HCT-116 cells.
[9] abbreviates: Homo sapiens, A549, 48 h, MTT, 48 h, A549 cells.
Setting [10] is: Homo sapiens, Huh-7, 48 h, MTT, 48 h, Huh-7 cells.
Setting [11] is: L02, MTT, 48 h, normal hepatic L-02 cells.
Setting [12] is: Homo sapiens, A-375, 48 h, MTT, 48 h, A375 cells.

Where two headings read alike, the source gives them in different places.

On to `Cc1cc(=O)cc2c3c1C1OC4C5OC(=O)C(C=C2)(C4C)C3C15` [Compound 6, (3R,4aR,10aS,11S)-5,11-dimethyl-2a,3,4a,10a1-tetrahydro-1H-2,4-dioxa-3,10a methanocyclohepta[bc]cyclopenta[jk]acenaphthylene-1,7(2a1H)-dione], for which the IC50 in data set [1] (setting [8]) stood at 860 ± 50 nM; in data set [2] (setting [9]), 5.47 ± 0.13 µM; in data set [3] (setting [10]), 1.19 ± 0.08 µM; in data set [4] (setting [11]) it was 67.2 ± 0.43 µM; in data set [5] (setting [12]), 4.85 ± 0.42 µM. Further, the “SI (selectivity index)” value in data set [4] is given as 56.5. In data set [4] (SI between Huh-7 and L-02, compared with HO), the “selectivity index relative to HO” value is 20 times.

Turning to `Cc1cc(=O)cc2c3c1C1OC4C5OC(=O)C(CC2O)(C4C)C3C15` [Compound 10, (3R,4aR,9S,10aS,11S)-9-hydroxy-5,11-dimethyl-2a,3,4a,9,10,10a1-hexahydro-1H-2,4-dioxa-3,10a-methanocyclohepta[bc]cyclopenta[jk]acenaphthylene-1,7(2a1H)-dione], the IC50 in data set [1] (MTT, 48 h, HCT-116 cells) was determined as 2290 ± 270 nM; in data set [2] (MTT, 48 h, A549 cells), 8.25 ± 0.2 µM; in data set [3] (MTT, 48 h, Huh-7 cells), 6.34 ± 0.32 µM; in data set [4] (setting [11]) it was 22.3 ± 1.11 µM; in data set [5] (MTT, 48 h, A375 cells), 5.79 ± 1.26 µM. Also, the “SI (selectivity index)” value in data set [4] worked out at 3.5.

For `Cc1cc(=O)cc2c3c1[C@@H]1O[C@H]4[C@@H]5OC(=O)[C@](CC2)([C@@H]4C)[C@H]3[C@@H]51` [HO (1), Harringtonolide], the IC50 in data set [1] (Homo sapiens, HCT-116, 48 h) stood at 610 ± 30 nM; in data set [2] (Homo sapiens, A549, 48 h), 1.67 ± 0.23 µM; in data set [3] (Homo sapiens, Huh-7, 48 h) it was 1.25 ± 0.08 µM; in data set [4] (L02, 48 h), 3.46 ± 0.36 µM; in data set [5] (Homo sapiens, A-375, 48 h) it was 1.34 ± 0.23 µM. Also, the “SI (selectivity index)” value in data set [4] came to 2.8.

Regarding `CC1=C[C@@H](O)[C@H](O)[C@@]2(O)CCC34C(=O)OC5C6C3C2=C1[C@@H]6O[C@@H]5C4C` (stereo partly drawn) [fortalpinoid K], the “cytotoxic activities (result in words)” value in data set [6] is recorded as “losing of cytotoxic activities”.

Regarding `Cc1cc(=O)cc2c3c1C1OC4C5OC(O)C(CC2)(C4C)C3C15` [Compound 4, (1R,3R,4aR,10aS,11S)-1-hydroxy-5,11-dimethyl-2a,3,4a,9,10,10a1-hexahydro-1H-2,4-dioxa-3,10a-methanocyclohepta[bc]cyclopenta[jk]acenaphthylen-7(2a1H)-one], in data set [7], the “cytotoxic activities against four tested cancer cells (result in words)” value is “losing of cytotoxic activities”. Besides, the IC50 in data set [1] (setting [8]) was greater than 50000 nM; in data set [2] (setting [9]), greater than 50 µM; in data set [3] (setting [10]), greater than 50 µM; in data set [5] (setting [12]), greater than 50 µM.

`CC(=O)Nc1c2c3c(c(C)cc1=O)C1OC4C5OC(=O)C(CC2)(C4C)C3C15` [Compound 3, N-((3R,4aR,10aS,11S)-5,11-dimethyl-1,7-dioxo-2a,2a1,3,4a,7,9,10,10a1-octahydro-1H-2,4-dioxa-3,10a-methanocyclohepta[bc]cyclopenta[jk]acenaphthylen-8-yl) acetamide]: in data set [7], the “cytotoxic activities against four tested cancer cells (result in words)” value is recorded as “losing of cytotoxic activities”. Further, the half-maximal inhibitory concentration (IC50) in data set [1] (setting [8]) was greater than 50000 nM; in data set [2] (setting [9]) it was greater than 50 µM; in data set [3] (setting [10]), greater than 50 µM; in data set [5] (setting [12]) it was greater than 50 µM.
